One test addresses T1, MLKL (Homo sapiens, UniProt Q8NB16).
T1 sequence (Q8NB16 1-471): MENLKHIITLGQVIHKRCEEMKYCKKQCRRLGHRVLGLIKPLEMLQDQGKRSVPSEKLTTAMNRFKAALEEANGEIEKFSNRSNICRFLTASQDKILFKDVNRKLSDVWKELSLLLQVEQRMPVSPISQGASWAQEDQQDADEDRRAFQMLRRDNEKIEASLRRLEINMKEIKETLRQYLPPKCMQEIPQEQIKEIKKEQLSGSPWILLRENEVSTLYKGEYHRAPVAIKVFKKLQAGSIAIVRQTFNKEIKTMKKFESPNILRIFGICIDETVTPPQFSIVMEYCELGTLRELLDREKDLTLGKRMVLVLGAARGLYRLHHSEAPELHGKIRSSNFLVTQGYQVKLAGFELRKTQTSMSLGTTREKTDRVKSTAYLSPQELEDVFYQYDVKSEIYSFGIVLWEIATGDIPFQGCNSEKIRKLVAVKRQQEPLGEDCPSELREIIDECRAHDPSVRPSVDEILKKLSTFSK
The experiment in a line: Measurement of binding affinity with MLKL receptor (competitive binding assay, Kd). Further details: made in house; host or cells: HEK 293 cell line (T7 phage in E. coli BL21-derived host is also described). As to the method: Measurement of Binding Affinity with MLKL Receptor (Competitive Binding Assay)
The binding affinity was evaluated by measuring the Kd value in the following method.
To prepare kinase-tagged T7 phage strains in an E. coli host derived from the BL21 strain, E. coli were grown to log-phase and infected with T7 phage and incubated with shaking at 32° C. until lysis. The lysates were centrifuged and filtered to remove cell debris. For kinase production, it was expressed in human embryonic kidney cell line (HEK 293 cell line), and subsequently tagged with DNA for qPCR detection.
The liganded beads were blocked with excess biotin and washed with blocking buffer (SeaBlock (Pierce), 1% BSA, 0.05% Tween 20, 1 mM DTT) to remove unbound ligand and to reduce non-specific binding. […] Test compounds were prepared as 111× stocks in 100% DMSO.
The compounds were then diluted directly into the assays such that the final concentration of DMSO was 0.9%. All reactions performed in polypropylene 384-well plate. Each was a final volume of 0.02 ml. […] The kinase concentration in the eluates was measured by qPCR.

The subject of another test is FADD−/− Jurkat cells. Description: Necroptosis inhibition assay, TNF-α-induced necroptosis (CellTiter-Glo 2.0). The format is cell-based, human. The settings on record: TNF-α 15 ng/mL; for Necroptosis inhibition assay (Rescue %) 1 μM: compound 1 μM; for Necroptosis inhibition assay (Rescue %) 10 μM: compound 10 μM. As to the method: Necroptosis Inhibition Assay
Necroptosis inhibition was evaluated by the following method.
80 μL of FADD gene-defective human T lymphocyte cells (FADD−/− Jurkat cells) were equally distributed into each well at 5.0×10^5 cells/mL in a white 96-well plate with a transparent bottom. 20 μL of the medium containing test compound was treated in each well so that the final concentration of the compound was 0.1, 1, and 10 μM, and reacted at room temperature for 30 minutes. After the 30-minute reaction was over, TNF (tumor necrosis factor)-α was treated in the corresponding well so that the final concentration of TNF-α was 15 ng/mL in order to induce necroptosis. It was cultured in a 5% CO2, 37° C. incubator for 20 to 24 hours.
After incubation, the 96-well plate was left at room temperature for 30 minutes. After 30 minutes, Promega's CellTiter-Glo 2.0 reagent was diluted 1:3 with PBS and 100 μL of the diluted solution was added to each well to confirm cell viability by measuring the amount of ATP. After the treatment, the plate was shielded from light and incubated at room temperature for 2 minutes with orbital shaking, and then left at room temperature for 10 minutes without shaking. After measuring the luminescence at 0.5 seconds per well using a plate scanner, the cytotoxicity and necroptosis inhibition rate for the compound were calculated using the measured values.
(In general: In ATP-based viability assays light output follows the ATP content of the culture.)

Counter-ions that a name gives are not always drawn.

16 compounds from US20240252488A1 (KOREA RESEARCH INSTITUTE OF CHEMICAL TECHNOLOGY, priority 2020, published 2024) can be followed below.

As usually defined, the Kd is the constant that tells how readily two partners part at equilibrium. In turn, `Nc1ncc(-c2cnn(C3CCN(CCOCCOCCNc4ccc5c(c4)C(=O)N(C4CCC(=O)NC4=O)C5=O)CC3)c2)nc1C(=O)N[C@@H](C(=O)Nc1ccc(F)cc1)c1ccccc1` (stereo partly drawn) [TDH-216, 3-amino-6-(1-(1-(2-(2-(2-((2-(2,6-dioxopiperidin-3-yl)-1,3-dioxoisoindolin-5-yl)amino)ethoxy)ethoxy)ethyl)piperidin-4-yl)-1H-pyrazol-4-yl)-N-((R)-2-((4-fluorophenyl)amino)-2-oxo-1-phenylethyl)pyrazine-2-carboxamide] yielded a Kd on MLKL of 43 nM. For the same compound, in the test with FADD−/− Jurkat cells, the “Necroptosis inhibition assay (Rescue %) 1 μM” value was found to be 21.7% and the “Necroptosis inhibition assay (Rescue %) 10 μM” value amounted to 38.63%. The matching figures for `Nc1ncc(-c2cnn(C3CCN(CCOCCOCCNc4cccc5c4C(=O)N(C4CCC(=O)NC4=O)C5=O)CC3)c2)nc1C(=O)N[C@@H](C(=O)Nc1ccc(F)cc1)c1ccccc1` (stereo partly drawn) [TDH-215, 3-amino-6-(1-(1-(2-(2-(2-((2-(2,6-dioxopiperidin-3-yl)-1,3-dioxoisoindolin-4-yl)amino)ethoxy)ethoxy)ethyl)piperidin-4-yl)-1H-pyrazol-4-yl)-N-((R)-2-((4-fluorophenyl)amino)-2-oxo-1-phenylethyl)pyrazine-2-carboxamide]: 91 nM, 15.33% and 21.83%. Consider `Nc1ncc(-c2cnn(C3CCN(CCCN4CCN(C(=O)CNc5ccc6c(c5)C(=O)N(C5CCC(=O)NC5=O)C6=O)CC4)CC3)c2)nc1C(=O)N[C@@H](C(=O)Nc1ccc(F)cc1)c1ccccc1` (stereo partly drawn) [TDH-493, 3-amino-6-(1-(1-(3-(4-((2-(2,6-dioxopiperidin-3-yl)-1,3-dioxoisoindolin-5-yl)glycyl)piperazin-1-yl)propyl)piperidin-4-yl)-1H-pyrazol-4-yl)-N-((R)-2-((4-fluorophenyl)amino)-2-oxo-1-phenylethyl)pyrazine-2-carboxamide], for which binding on MLKL was put at a Kd of 91 nM. Besides, in the test with FADD−/− Jurkat cells (FADD−/− Jurkat cells), the “Necroptosis inhibition assay (Rescue %) 1 μM” value was 1.49% and the “Necroptosis inhibition assay (Rescue %) 10 μM” value was −3.98%. In turn, `Nc1ncc(-c2cnn(C3CCN(CCCCCCCCCCNC(=O)COc4cccc5c4C(=O)N(C4CCC(=O)NC4=O)C5=O)CC3)c2)nc1C(=O)O[C@@H](C(=O)Nc1ccc(F)cc1)c1ccccc1` (stereo partly drawn) [TDH-163, (R)-2-((4-fluorophenyl)amino)-2-oxo-1-phenylethyl 3-amino-6-(1-(1-(10-(2-((2-(2,6-dioxopiperidin-3-yl)-1,3-dioxoisoindolin-4-yl)oxy)acetamido)decyl)piperidin-4-yl)-1H-pyrazol-4-yl)pyrazine-2-carboxylate] registered a Kd at MLKL of 45 nM. For the same compound, in the test on FADD−/− Jurkat cells, the “Necroptosis inhibition assay (Rescue %) 1 μM” value worked out at 30.03% and the “Necroptosis inhibition assay (Rescue %) 10 μM” value was 28.56%.

Regarding `Nc1ncc(C2=CCN(C(=O)CCCCCNC(=O)C3CN(c4cccc5c4C(=O)N(C4CCC(=O)NC4=O)C5=O)C3)CC2)cc1C(=O)O[C@@H](C(=O)Nc1ccc(F)cc1)c1ccccc1` (stereo partly drawn) [TDH-078, (R)-2-((4-fluorophenyl)amino)-2-oxo-1-phenylethyl 6-amino-1′-(6-(1-(2-(2,6-dioxopiperidin-3-yl)-1,3-dioxoisoindolin-4-yl)azetidine-3-carboxamido)hexanoyl)-1′,2′,3′,6′-tetrahydro-[3,4′-bipyridine]-5-carboxylate], the affinity at MLKL, expressed as Kd, was 90 nM. The same measure, in the same setting: the same measure for `Cc1cc(Nc2ncc(Cl)c(Nc3ccccc3S(=O)(=O)C(C)C)n2)c(OC(C)C)cc1C1CCNCC1` [Ceritinib (C2)]: more than 10000 nM. On the same count and under the same terms, the result for `CC1CCC(NC(=O)[C@H](OC(=O)c2nc(-c3cnn(C4CCNCC4)c3)cnc2N)c2ccccc2)CC1` (stereo partly drawn) [TDH-424, (R)-2-((4-methylcyclohexyl)amino)-2-oxo-1-phenylethyl 3-amino-6-(1-(piperidin-4-yl)-1H-pyrazol-4-yl)pyrazine-2-carboxylate hydrochloride] reads 5.1 nM.

For `CC(=O)N1CC[C@@H](n2cc(-c3cnc(N)c(C(=O)OC(C(=O)Nc4ccc(F)cc4)c4ccccc4)n3)cn2)C1` (stereo partly drawn) [TDH-229, 2-((4-fluorophenyl)amino)-2-oxo-1-phenylethyl 6-(1-((R)-1-acetylpyrrolidin-3-yl)-1H-pyrazol-4-yl)-3-aminopyrazine-2-carboxylate], on MLKL, binding was characterised by a dissociation constant (Kd) of 1.1 nM. On to `Nc1ncc(C2=CCN(C(=O)COCCOCCNC(=O)C3CCN(c4ccc5c(c4)C(=O)N(C4CCC(=O)NC4=O)C5=O)CC3)CC2)cc1C(=O)O[C@@H](C(=O)Nc1ccc(F)cc1)c1ccccc1` (stereo partly drawn) [TDH-089, (R)-2-((4-fluorophenyl)amino)-2-oxo-1-phenylethyl 6-amino-1′-(2-(2-(2-(1-(2-(2,6-dioxopiperidin-3-yl)-1,3-dioxoisoindolin-5-yl)piperidine-4-carboxamido)ethoxy)ethoxy)acetyl)-1′,2′,3′,6′-tetrahydro-[3,4′-bipyridine]-5-carboxylate], for which binding at MLKL was characterised by a dissociation constant (Kd) of 56 nM. Same read-out and setting: the same measure for `Nc1ncc(C2=CCN(C(=O)COCCOCCNc3ccc4c(c3)C(=O)N(C3CCC(=O)NC3=O)C4=O)CC2)cc1C(=O)O[C@@H](C(=O)Nc1ccc(F)cc1)c1ccccc1` (stereo partly drawn) [TDH-083, (R)-2-((4-fluorophenyl)amino)-2-oxo-1-phenylethyl 6-amino-1′-(2-(2-(2-((2-(2,6-dioxopiperidin-3-yl)-1,3-dioxoisoindolin-5-yl)amino)ethoxy)ethoxy)acetyl)-1′,2′,3′,6′-tetrahydro-[3,4′-bipyridine]-5-carboxylate]: 84 nM; for `Nc1ncc(-c2cnn(C3CCNCC3)c2)nc1C(=O)O[C@@H](C(=O)Nc1ccncc1)c1ccccc1` [TDH-479, (R)-2-oxo-1-phenyl-2-(pyridin-4-ylamino)ethyl 3-amino-6-(1-(piperidin-4-yl)-1H-pyrazol-4-yl)pyrazine-2-carboxylate--2,2,2-trifluoroacetaldehyde]: 5.6 nM; for `CN(C)c1ccc(NC(=O)[C@H](OC(=O)c2nc(-c3cnn(C4CCNCC4)c3)cnc2N)c2ccccc2)cc1` [TDH-470, (R)-2-((4-(dimethylamino)phenyl)amino)-2-oxo-1-phenylethyl 3-amino-6-(1-(piperidin-4-yl)-1H-pyrazol-4-yl)pyrazine-2-carboxylate hydrochloride]: 3.8 nM. The same measure, in the same setting: the same measure for `CC(=O)N1CCC(n2cc(-c3cnc(N)c(C(=O)O[C@@H](C(=O)Nc4ccc(F)cc4)c4ccccc4)n3)cn2)CC1` [TDH-097, (R)-2-((4-fluorophenyl)amino)-2-oxo-1-phenylethyl 6-(1-(1-acetylpiperidin-4-yl)-1H-pyrazol-4-yl)-3-aminopyrazine-2-carboxylate]: 0.73 nM; for `Nc1nccnc1C(=O)O[C@@H](C(=O)Nc1ccc(F)cc1)c1ccccc1` [TDH-001, (R)-2-((4-fluorophenyl)amino)-2-oxo-1-phenylethyl 3-aminopyrazine-2-carboxylate]: 94 nM; for `CC(=O)N1CC[C@H](n2cc(-c3cnc(N)c(C(=O)OC(C(=O)Nc4ccc(F)cc4)c4ccccc4)n3)cn2)C1` (stereo partly drawn) [TDH-228, 2-((4-fluorophenyl)amino)-2-oxo-1-phenylethyl 6-(1-((S)-1-acetylpyrrolidin-3-yl)-1H-pyrazol-4-yl)-3-aminopyrazine-2-carboxylate]: 1.2 nM.

Turning to `Nc1ncc(C2=CCN(C(=O)CCCCCNC(=O)C3CCN(c4cccc5c4C(=O)N(C4CCC(=O)NC4=O)C5=O)CC3)CC2)cc1C(=O)O[C@@H](C(=O)Nc1ccc(F)cc1)c1ccccc1` (stereo partly drawn) [TDH-080, (R)-2-((4-fluorophenyl)amino)-2-oxo-1-phenylethyl 6-amino-1′-(6-(1-(2-(2,6-dioxopiperidin-3-yl)-1,3-dioxoisoindolin-4-yl)piperidine-4-carboxamido)hexanoyl)-1′,2′,3′,6′-tetrahydro-[3,4′-bipyridine]-5-carboxylate], binding on MLKL was characterised by a dissociation constant (Kd) of 120 nM.
